According to patent US20260297060A1, “COMPOUNDS FOR THE DEGRADATION OF MUTANT BRAF” (C4 THERAPEUTICS, INC., priority 2023, published 2026):
Like-named read-outs stand apart in the source and are kept apart here.

Legend:
A375 = A375 cell viability assay (Example 15); format: cell-based, human
Procedure: FIG. 83 is a line graph showing the results of Compound 26, Compound 26-NMe, Compound 141, and Compound 141-NMe in an A375 viability assay. The y-axis is viability in % and the x-axis is concentration (nM). The experiment was conducted as described in Example 15.
This robust degradation activity is surprising in view of the minimal inhibition-based activity of selected compounds. […] However, the degradation deficient versions of Compound 26 and Compound 141 (N-methyl analogs) had minimal effect on cell viability at a concentration of 100 nM (see FIG. 83 and Example 15).

[1] = Pharmacokinetics in female BALB/c nude mice bearing A375 xenografts, 1 day dosing (PK and PD study): plasma, tumor and brain concentrations, AUC; format: in vivo; conditions: for Mean Concentration in Brain ± SEM / Mean Concentration in Plasma ± SEM / Mean Concentration in Tumor ± SEM: BQL: below the lower limit of quantitation; for AUC at 24 h: read-out: Brain AUC at 24 hours, Average
Description: The concentrations of Dabrafenib, Compound 26 and Compound 141 in the treatment of female BALB/c nude mice bearing A375 xenografts are shown in Table 62-Table 72 and FIG. 52-FIG. 73.

[2] = 1.5 mg/kg p.o. BID × 1 day, post 2nd dose, 48 h
[3] = 2 mg/kg p.o. TID × 1 day, post 3rd dose, 48 h
[4] = 3 mg/kg p.o. BID × 1 day, post 2nd dose, 36 h
[5] = mouse, brain, po, 1.5 mg/kg, 1.5 mg/kg p.o. BID × 1 day, post 2nd dose, read-out: Mean Concentration in Brain ± SEM
[6] = mouse, brain, po, 2 mg/kg, 2 mg/kg p.o. TID × 1 day, post 3rd dose, read-out: Mean Concentration in Brain ± SEM
[7] = mouse, brain, po, 3 mg/kg, 3 mg/kg p.o. BID × 1 day, post 2nd dose, read-out: Mean Concentration in Brain ± SEM
[8] = mouse, brain, po, 6 mg/kg, 6 mg/kg p.o. QD × 1 day, read-out: Mean Concentration in Brain ± SEM
[9] = mouse, brain, po, 10 mg/kg, 10 mg/kg p.o. BID × 1 day, post 2nd dose, read-out: Mean Concentration in Brain ± SEM
[10] = mouse, plasma, po, 1.5 mg/kg, 1.5 mg/kg p.o. BID × 1 day, post 1st dose, read-out: Mean Concentration in Plasma ± SEM
[11] = mouse, plasma, po, 1.5 mg/kg, 1.5 mg/kg p.o. BID × 1 day, post 2nd dose, read-out: Mean Concentration in Plasma ± SEM
[12] = mouse, plasma, po, 2 mg/kg, 2 mg/kg p.o. TID × 1 day, post 1st dose, read-out: Mean Concentration in Plasma ± SEM
[13] = mouse, plasma, po, 2 mg/kg, 2 mg/kg p.o. TID × 1 day, post 2nd dose, read-out: Mean Concentration in Plasma ± SEM
[14] = mouse, plasma, po, 2 mg/kg, 2 mg/kg p.o. TID × 1 day, post 3rd dose, read-out: Mean Concentration in Plasma ± SEM
[15] = mouse, plasma, po, 3 mg/kg, 3 mg/kg p.o. BID × 1 day, post 1st dose, read-out: Mean Concentration in Plasma ± SEM

Compound: CCN(C)S(=O)(=O)Nc1ccc(F)c(Oc2ccc3ncn([C@H]4COC5(CCN(C6CC7(C6)CN(c6cc8c(cc6F)c(N6CCC(=O)NC6=O)nn8C)C7)CC5)C4)c(=O)c3c2)c1C#N [Compound 26, (3R)-3-[6-[2-cyano-3-[[ethyl(methyl)sulfamoyl]amino]-6-fluoro-phenoxy]-4-oxo-quinazolin-3-yl]-8-[2-[3-(2,4-dioxohexahydropyrimidin-1-yl)-5-fluoro-1-methyl-indazol-6-yl]-2-azaspiro[3.3]heptan-6-yl]-1-oxa-8-azaspiro[4.5]decane]
- cytotoxicity (in words) (A375; A375 cells): potent cytotoxic agents
- effect on cancer cell viability (A375; human, a375 cells, 0.1 µM): ≥ 30%
- Mean Concentration in Brain ± SEM ([1]; 1.5 mg/kg p.o. BID × 1 day, post 2nd dose, 24 h): BQL^a
- Mean Concentration in Brain ± SEM [1, 2]: BQL
- Mean Concentration in Plasma ± SEM [1, 2]: BQL
- Mean Concentration in Brain ± SEM ([1]; 2 mg/kg p.o. TID × 1 day, post 3rd dose, 24 h): BQL^a
- Mean Concentration in Brain ± SEM [1, 3]: BQL
- Mean Concentration in Plasma ± SEM [1, 3]: BQL
- Mean Concentration in Tumor ± SEM [1, 3]: BQL
- Mean Concentration in Brain ± SEM ([1]; 3 mg/kg p.o. BID × 1 day, post 2nd dose, 24 h): BQL^a
- Mean Concentration in Brain ± SEM [1, 4]: BQL
- Mean Concentration in Tumor ± SEM [1, 4]: BQL
- Mean Concentration in Brain ± SEM ([1]; 3 mg/kg p.o. BID × 1 day, post 2nd dose, 48 h): BQL
- Mean Concentration in Brain ± SEM ([1]; 6 mg/kg p.o. QD × 1 day, 24 h): BQL^a
- Mean Concentration in Brain ± SEM ([1]; 6 mg/kg p.o. QD × 1 day, 48 h): BQL
- Mean Concentration in Brain ± SEM ([1]; 10 mg/kg p.o. BID × 1 day, post 2nd dose, 24 h): BQL^a
- Mean Concentration in Brain ± SEM ([1]; 10 mg/kg p.o. BID × 1 day, post 2nd dose, 48 h): BQL
- concentration at 1 h [1, 5]: 25 ± 3.74 ng/g
- concentration at 4 h [1, 5]: 21.8 ± 3.64 ng/g
- concentration at 10 h [1, 5]: 9.78 ± 0.841 ng/g
- concentration at 1 h [1, 6]: 66.5 ± 11.7 ng/g
- concentration at 4 h [1, 6]: 26.9 ± 2.99 ng/g
- concentration at 10 h [1, 6]: 23 ± 7.44 ng/g
- concentration at 0.25 h [1, 7]: 29.7 ng/g
- concentration at 0.5 h [1, 7]: 41 ± 4.05 ng/g
- concentration at 1 h [1, 7]: 89.1 ± 25 ng/g
- concentration at 2 h [1, 7]: 99.5 ± 11.9 ng/g
- concentration at 4 h [1, 7]: 35.8 ± 6.52 ng/g
- concentration at 10 h [1, 7]: 14.5 ± 0.737 ng/g
- concentration at 1 h [1, 8]: 167 ± 27.6 ng/g
- concentration at 4 h [1, 8]: 79.2 ± 21.8 ng/g
- concentration at 10 h [1, 8]: 30.8 ± 8.11 ng/g
- concentration at 1 h [1, 9]: 313 ± 41.7 ng/g
- concentration at 4 h [1, 9]: 185 ± 18.2 ng/g
- concentration at 10 h [1, 9]: 80.4 ± 8.59 ng/g
- AUC at 24 h ([1]; mouse, brain, po, 1.5 mg/kg p.o. BID × 1 day): 233 ng·h/mL
- AUC at 24 h ([1]; mouse, brain, po, 2 mg/kg p.o. TID × 1 day): 451 ng·h/mL
- AUC at 24 h ([1]; mouse, brain, po, 3 mg/kg p.o. BID × 1 day): 522 ng·h/mL
- AUC at 24 h ([1]; mouse, brain, po, 6 mg/kg p.o. QD × 1 day): 915 ng·h/mL
- AUC at 24 h ([1]; mouse, brain, po, 10 mg/kg p.o. BID × 1 day): 2100 ng·h/mL
- concentration at 0.25 h [1, 10]: 1180 ± 103 ng/mL
- concentration at 0.5 h [1, 10]: 2620 ± 182 ng/mL
- concentration at 1 h [1, 10]: 3790 ± 553 ng/mL
- concentration at 2 h [1, 10]: 3090 ± 346 ng/mL
- concentration at 4 h [1, 10]: 1110 ± 339 ng/mL
- concentration at 8 h [1, 10]: 318 ± 78.2 ng/mL
- concentration at 12 h ([1]; mouse, plasma, po, 1.5 mg/kg, 1.5 mg/kg p.o. BID × 1 day, post 1st dose, 12 h, read-out: Mean Concentration in Plasma ± SEM): 121 ± 6.74 ng/mL
- concentration at 0.25 h [1, 11]: 629 ± 24.4 ng/mL
- concentration at 0.5 h [1, 11]: 1580 ± 108 ng/mL
- concentration at 1 h [1, 11]: 1820 ± 86.6 ng/mL
- concentration at 2 h [1, 11]: 2930 ± 312 ng/mL
- concentration at 4 h [1, 11]: 1740 ± 355 ng/mL
- concentration at 10 h [1, 11]: 541 ± 95.8 ng/mL
- concentration at 24 h ([1]; mouse, plasma, po, 1.5 mg/kg, 1.5 mg/kg p.o. BID × 1 day, post 2nd dose, 24 h, read-out: Mean Concentration in Plasma ± SEM): 4.74 ± 1.31 ng/mL
- concentration at 36 h ([1]; mouse, plasma, po, 1.5 mg/kg, 1.5 mg/kg p.o. BID × 1 day, post 2nd dose, 36 h, read-out: Mean Concentration in Plasma ± SEM): 0.889 ng/mL
- concentration at 0.25 h [1, 12]: 1600 ± 272 ng/mL
- concentration at 0.5 h [1, 12]: 2880 ± 289 ng/mL
- concentration at 1 h [1, 12]: 3720 ± 77.7 ng/mL
- concentration at 2 h [1, 12]: 2930 ± 635 ng/mL
- concentration at 4 h [1, 12]: 1420 ± 56.7 ng/mL
- concentration at 8 h [1, 12]: 283 ± 80.3 ng/mL
- concentration at 0.25 h [1, 13]: 1390 ± 84.1 ng/mL
- concentration at 2 h [1, 13]: 2720 ± 466 ng/mL
- concentration at 8 h [1, 13]: 580 ± 166 ng/mL
- concentration at 0.25 h [1, 14]: 1090 ± 75.2 ng/mL
- concentration at 0.5 h [1, 14]: 2630 ± 81.7 ng/mL
- concentration at 1 h [1, 14]: 3780 ± 584 ng/mL
- concentration at 2 h [1, 14]: 3680 ± 376 ng/mL
- concentration at 4 h [1, 14]: 1770 ± 127 ng/mL
- concentration at 10 h [1, 14]: 1250 ± 411 ng/mL
- concentration at 24 h ([1]; mouse, plasma, po, 2 mg/kg, 2 mg/kg p.o. TID × 1 day, post 3rd dose, 24 h, read-out: Mean Concentration in Plasma ± SEM): 9.4 ± 3.31 ng/mL
- concentration at 36 h ([1]; mouse, plasma, po, 2 mg/kg, 2 mg/kg p.o. TID × 1 day, post 3rd dose, 36 h, read-out: Mean Concentration in Plasma ± SEM): 1.45 ng/mL
- concentration at 0.25 h [1, 15]: 3010 ± 401 ng/mL
- concentration at 0.5 h [1, 15]: 8140 ± 2030 ng/mL
- concentration at 1 h [1, 15]: 7840 ± 1330 ng/mL
